Activity calls are given as the source filed them. No rule for the calls is given here.
Test system: CCRIS mutagenicity, Ames/micronucleus/aberration tests
Assay: CCRIS mutagenicity studies
[1] = Test System: AMES SALMONELLA TYPHIMURIUM, Strain/Indicator: TA98, Metabolic Activation: NONE, Method: PREINCUBATION
[2] = Test System: AMES SALMONELLA TYPHIMURIUM, Strain/Indicator: TA100, Metabolic Activation: NONE, Method: PREINCUBATION
[3] = Test System: AMES SALMONELLA TYPHIMURIUM, Strain/Indicator: TA100, Metabolic Activation: RAT, LIVER, S-9, PCB, Method: PREINCUBATION

For `COC(=O)C1=C(C)NC(C)=C(C(=O)OC)C1c1ccccc1[N+](=O)[O-]`, the mutagenic call (Test System: AMES SALMONELLA TYPHIMURIUM, Strain/Indicator: TA97, Metabolic Activation: HAMSTER, LIVER, S-9, AROCLOR 1254 (10 OR 30%), Method: PREINCUBATION) was “inactive; negative”, the mutagenic call (Test System: AMES SALMONELLA TYPHIMURIUM, Strain/Indicator: TA97, Metabolic Activation: NONE, Method: PREINCUBATION) was “inactive; negative” and the mutagenic call (Test System: AMES SALMONELLA TYPHIMURIUM, Strain/Indicator: TA97, Metabolic Activation: RAT, LIVER, S-9, AROCLOR 1254 (10 OR 30%), Method: PREINCUBATION) was “inactive; negative”. The mutagenic call (Test System: AMES SALMONELLA TYPHIMURIUM, Strain/Indicator: TA98, Metabolic Activation: HAMSTER, LIVER, S-9, AROCLOR 1254 (10 OR 30%), Method: PREINCUBATION) was “inactive; negative”, the mutagenic call [1] was “inactive; negative” and the mutagenic call (Test System: AMES SALMONELLA TYPHIMURIUM, Strain/Indicator: TA98, Metabolic Activation: RAT, LIVER, S-9, AROCLOR 1254 (10 OR 30%), Method: PREINCUBATION) was “inactive; negative”. For the same compound, the mutagenic call (Test System: AMES SALMONELLA TYPHIMURIUM, Strain/Indicator: TA100, Metabolic Activation: HAMSTER, LIVER, S-9, AROCLOR 1254 (10 OR 30%), Method: PREINCUBATION) was “inactive; negative”, the mutagenic call [2] was “inactive; negative” and the mutagenic call (Test System: AMES SALMONELLA TYPHIMURIUM, Strain/Indicator: TA100, Metabolic Activation: RAT, LIVER, S-9, AROCLOR 1254 (10 OR 30%), Method: PREINCUBATION) was “inactive; negative”. The mutagenic call (Test System: AMES SALMONELLA TYPHIMURIUM, Strain/Indicator: TA1535, Metabolic Activation: HAMSTER, LIVER, S-9, AROCLOR 1254 (10 OR 30%), Method: PREINCUBATION) was “inactive; negative”, the mutagenic call (Test System: AMES SALMONELLA TYPHIMURIUM, Strain/Indicator: TA1535, Metabolic Activation: NONE, Method: PREINCUBATION) was “inactive; negative” and the mutagenic call (Test System: AMES SALMONELLA TYPHIMURIUM, Strain/Indicator: TA1535, Metabolic Activation: RAT, LIVER, S-9, AROCLOR 1254 (10 OR 30%), Method: PREINCUBATION) was “inactive; negative”.

For `O=[N+]([O-])c1ccc2c3ccccc3c3ccc([N+](=O)[O-])c4ccc1c2c43`, the mutagenic call (End Point: In vitro micronucleus, Test System: CHL/IU cells, Metabolic Activation: None) was “active; positive”, the mutagenic call (End Point: In vitro micronucleus, Test System: HepG2 cells, Metabolic Activation: None) was “active; positive” and the mutagenic call (Test System: Chinese hamster lung cells/HPRT locus, Strain/Indicator: CHL/IU, Metabolic Activation: None) was “active; positive”. For the same compound, the mutagenic call (Test System: Human liver cells/HPRT locus, Strain/Indicator: HepG2, Metabolic Activation: None) was “active; positive”.

In the case of `CC1(C)O[C@H]1COc1c2ccoc2cc2oc(=O)ccc12`, the mutagenic call (Test System: AMES SALMONELLA TYPHIMURIUM, Strain/Indicator: TA92, Metabolic Activation: NONE, Method: SPOT TEST) was “inactive; negative”, the mutagenic call (Test System: AMES SALMONELLA TYPHIMURIUM, Strain/Indicator: TA92, Metabolic Activation: RAT, LIVER, S-9, AROCLOR 1254, Method: SPOT TEST) was “inactive; negative” and the mutagenic call (Test System: AMES SALMONELLA TYPHIMURIUM, Strain/Indicator: TA94, Metabolic Activation: NONE, Method: SPOT TEST) was “inactive; negative”. For the same compound, the mutagenic call (Test System: AMES SALMONELLA TYPHIMURIUM, Strain/Indicator: TA94, Metabolic Activation: RAT, LIVER, S-9, AROCLOR 1254, Method: SPOT TEST) was “inactive; negative”, the mutagenic call (Test System: AMES SALMONELLA TYPHIMURIUM, Strain/Indicator: TA97, Metabolic Activation: NONE, Method: SPOT TEST) was “inactive; negative” and the mutagenic call (Test System: AMES SALMONELLA TYPHIMURIUM, Strain/Indicator: TA97, Metabolic Activation: RAT, LIVER, S-9, AROCLOR 1254, Method: SPOT TEST) was “inactive; negative”. For the same compound, the mutagenic call (Test System: AMES SALMONELLA TYPHIMURIUM, Strain/Indicator: TA98, Metabolic Activation: NONE, Method: SPOT TEST) was “inactive; negative”, the mutagenic call (Test System: AMES SALMONELLA TYPHIMURIUM, Strain/Indicator: TA98, Metabolic Activation: RAT, LIVER, S-9, AROCLOR 1254, Method: SPOT TEST) was “inactive; negative” and the mutagenic call (Test System: AMES SALMONELLA TYPHIMURIUM, Strain/Indicator: TA100, Metabolic Activation: NONE, Method: SPOT TEST) was “inactive; negative”. The mutagenic call (Test System: AMES SALMONELLA TYPHIMURIUM, Strain/Indicator: TA100, Metabolic Activation: RAT, LIVER, S-9, AROCLOR 1254, Method: SPOT TEST) was “inactive; negative”, the mutagenic call (Test System: AMES SALMONELLA TYPHIMURIUM, Strain/Indicator: TA102, Metabolic Activation: NONE, Method: SPOT TEST) was “inactive; negative” and the mutagenic call (Test System: AMES SALMONELLA TYPHIMURIUM, Strain/Indicator: TA102, Metabolic Activation: RAT, LIVER, S-9, AROCLOR 1254, Method: SPOT TEST) was “inactive; negative”.

In the case of `O=C(/C=C/c1ccc([N+](=O)[O-])o1)N/N=C/c1ccc([N+](=O)[O-])o1`, the mutagenic call (Test System: AMES SALMONELLA TYPHIMURIUM, Strain/Indicator: TA98(1,8-DNP6), Metabolic Activation: NONE, Method: STANDARD PLATE) was “active; positive”, the mutagenic call (Test System: AMES SALMONELLA TYPHIMURIUM, Strain/Indicator: TA98(1,8-DNP6), Metabolic Activation: RAT, LIVER, S-9, 3-METHYLCHOLANTHRENE, Method: STANDARD PLATE) was “active; positive” and the mutagenic call (Test System: AMES SALMONELLA TYPHIMURIUM, Strain/Indicator: TA98(NR), Metabolic Activation: NONE, Method: STANDARD PLATE) was “active; positive”. The mutagenic call (Test System: AMES SALMONELLA TYPHIMURIUM, Strain/Indicator: TA98(NR), Metabolic Activation: RAT, LIVER, S-9, 3-METHYLCHOLANTHRENE, Method: STANDARD PLATE) was “active; positive”, the mutagenic call (Test System: AMES SALMONELLA TYPHIMURIUM, Strain/Indicator: TA98, Metabolic Activation: NONE, Method: STANDARD PLATE) was “active; positive” and the mutagenic call (Test System: AMES SALMONELLA TYPHIMURIUM, Strain/Indicator: TA98, Metabolic Activation: RAT, LIVER, S-9, 3-METHYLCHOLANTHRENE, Method: STANDARD PLATE) was “active; positive”.

For `CCCCN(C[C@@H](CO)Cc1ccccc1)N=O`, the mutagenic call [2] was “inactive; negative” and the mutagenic call [3] was “active; positive”.

In the case of `COS(=O)(=O)c1ccccc1`, the mutagenic call (End Point: IN VITRO MICRONUCLEUS, Test System: MOUSE LYMPHOMA L5178Y CELLS, Metabolic Activation: NONE) was “active; positive”, the mutagenic call (End Point: IN VITRO MICRONUCLEUS, Test System: MOUSE LYMPHOMA L5178Y CELLS, Metabolic Activation: RAT, LIVER, S-9) was “active; positive” and the mutagenic call (End Point: In vitro micronucleus, Test System: Chinese Hamster Ovary (CHO-WBL) cells, Metabolic Activation: None) was “active; positive (p<0.05)”. The mutagenic call (Test System: AMES SALMONELLA TYPHIMURIUM, Strain/Indicator: TA100, Metabolic Activation: NONE, Method: STANDARD PLATE) was “inactive; negative; response reported as weakly positive” and the mutagenic call (Test System: AMES SALMONELLA TYPHIMURIUM, Strain/Indicator: TA100, Metabolic Activation: RAT, LIVER, S-9, Method: STANDARD PLATE) was “active; positive”.

With `Nc1ccc(Oc2ccc(Oc3ccc(N)cc3)cc2)cc1` the mutagenic call [1] was “inactive; negative”, the mutagenic call [2] was “inactive; negative” and the mutagenic call [3] was “active; positive”.

Reference: PubChem BioAssay AID1259407 (Chemical Carcinogenesis Research Information System (CCRIS), 2018)
